According to US6211244A, “Calcium receptor-active compounds” (priority 1995, dated 2001):

Molecular target: T1, human calcium receptor (Homo sapiens, UniProt P41180, R990G)
T1 construct: expressed in transfected cells; host or cells: HEK 293
T1 sequence (P41180 20-1078 R990G): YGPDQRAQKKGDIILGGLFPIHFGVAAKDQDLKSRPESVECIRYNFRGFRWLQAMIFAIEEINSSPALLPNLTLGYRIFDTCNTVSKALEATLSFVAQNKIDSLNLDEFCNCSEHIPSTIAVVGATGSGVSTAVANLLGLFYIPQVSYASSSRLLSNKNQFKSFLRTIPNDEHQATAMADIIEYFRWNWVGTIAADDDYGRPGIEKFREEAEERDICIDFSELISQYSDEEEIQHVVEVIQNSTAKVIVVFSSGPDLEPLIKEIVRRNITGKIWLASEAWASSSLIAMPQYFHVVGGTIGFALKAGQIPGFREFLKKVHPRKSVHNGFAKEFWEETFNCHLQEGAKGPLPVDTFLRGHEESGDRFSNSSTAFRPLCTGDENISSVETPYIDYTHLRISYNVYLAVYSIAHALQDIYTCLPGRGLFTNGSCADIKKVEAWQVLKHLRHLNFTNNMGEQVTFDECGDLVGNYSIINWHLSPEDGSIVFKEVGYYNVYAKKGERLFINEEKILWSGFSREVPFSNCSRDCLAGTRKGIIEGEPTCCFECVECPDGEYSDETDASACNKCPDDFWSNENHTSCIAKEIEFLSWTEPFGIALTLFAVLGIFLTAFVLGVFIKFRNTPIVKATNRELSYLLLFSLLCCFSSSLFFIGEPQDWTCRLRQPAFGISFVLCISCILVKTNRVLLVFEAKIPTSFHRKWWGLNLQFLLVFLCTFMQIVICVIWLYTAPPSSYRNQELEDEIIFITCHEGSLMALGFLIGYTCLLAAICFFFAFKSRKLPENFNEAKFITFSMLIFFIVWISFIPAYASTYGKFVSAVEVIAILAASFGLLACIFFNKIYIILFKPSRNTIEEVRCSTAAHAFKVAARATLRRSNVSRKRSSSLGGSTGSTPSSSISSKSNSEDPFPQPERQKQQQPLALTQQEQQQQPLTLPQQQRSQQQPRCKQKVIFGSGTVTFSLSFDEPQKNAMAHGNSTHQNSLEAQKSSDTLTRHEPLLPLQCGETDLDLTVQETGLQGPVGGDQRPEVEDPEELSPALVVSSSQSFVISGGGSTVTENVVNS
Experiment: increases in [Ca^2+ ]i in HEK-293 cells expressing the human calcium receptor (fura-2 loaded HEK 293/pHuPCaR4.0 cells), % activity
Format: cell-based
Conditions: for activity at […]: HEK293

Row | SMILES | % activity (33 ng/mL) | % activity (330 ng/mL) | % activity (3300 ng/mL) | activity at […] (33 ng/mL) | activity at […] (330 ng/mL)
1 | COc1ccc(CNC(C)c2ccccc2)cc1C (centres unmarked) [Compound 23G] | 67% | 93% | 127% |  | 
2 | COc1ccc(CNC(C)c2ccccc2OC)cc1C (centres unmarked) [Compound 23H] |  |  |  | 77% | 114%
3 | COc1cccc(C(C)NCc2ccc(OC)c(C)c2)c1 (centres unmarked) [Compound 23I] | 58% | 102% |  |  | 
4 | COc1ccc(CNC(C)c2ccccc2F)cc1C (centres unmarked) [Compound 23J] | 51% | 61% | 102% |  | 
5 | COc1ccc(CNC(C)c2cccc(F)c2)cc1C (centres unmarked) [Compound 23K] | 72% | 107% | 106% |  | 
6 | COc1ccc(CNC(C)c2ccc(F)cc2)cc1C (centres unmarked) [Compound 23L] | 37% | 77% | 107% |  | 
7 | COc1ccc(CNC(C)c2ccccc2Cl)cc1C (centres unmarked) [Compound 23M] | 74% | 97% | 113% |  | 
8 | COc1ccc(CNC(C)c2cccc(Cl)c2)cc1C (centres unmarked) [Compound 23N] | 50% | 96% |  |  | 
9 | COc1ccc(CNC(C)c2ccc(Cl)cc2)cc1C (centres unmarked) [Compound 23O] | 46% | 79% | 111% |  | 
10 | COc1ccc(CNC(C)c2ccccc2Br)cc1C (centres unmarked) [Compound 23P] | 70% | 99% | 125% |  | 
11 | COc1ccc(CNC(C)c2cccc(Br)c2)cc1C (centres unmarked) [Compound 23Q] | 98% | 114% | 122% |  | 
12 | COc1ccc(CNC(C)c2ccc(Br)cc2)cc1C (centres unmarked) [Compound 23R] | 54% | 86% | 104% |  | 
13 | COc1ccc(CNC(C)c2cccc(I)c2)cc1C (centres unmarked) [Compound 23S] | 53% | 97% |  |  | 
14 | COc1ccc(CNC(C)c2ccc(I)cc2)cc1C (centres unmarked) [Compound 23T] | 60% | 74% | 102% |  | 
15 | COc1ccc(CNC(C)c2cccc(C(C)=O)c2)cc1C (centres unmarked) [Compound 23U] | 48% | 87% |  |  | 
16 | COc1ccc(CNC(C)c2ccccc2C)cc1C (centres unmarked) [Compound 23W] | 81% | 97% | 117% |  | 
17 | COc1ccc(CNC(C)c2cccc(C)c2)cc1C (centres unmarked) [Compound 23X] | 49% | 94% |  |  | 
18 | COc1ccc(CNC(C)c2cccc(C)c2)cc1C (centres unmarked) [Compound 23Y] | 61% | 87% | 106% |  | 
19 | CCc1cccc(C(C)NCc2ccc(OC)c(C)c2)c1 (centres unmarked) [Compound 23Z] | 100% | 126% | 129% |  | 
20 | CCc1ccc(C(C)NCc2ccc(OC)c(C)c2)cc1 (centres unmarked) [Compound 24A] | 52% | 85% | 122% |  | 
21 | COc1ccc(CNC(C)c2ccccc2C(F)(F)F)cc1C (centres unmarked) [Compound 24B] | 34% | 61% | 76% |  | 
22 | COc1ccc(CNC(C)c2cccc(C(F)(F)F)c2)cc1C (centres unmarked) [Compound 24C] | 87% | 113% | 116% |  | 
23 | COc1ccc(CNC(C)c2ccc(C(F)(F)F)cc2)cc1C (centres unmarked) [Compound 24D] | 34% | 53% | 87% |  | 
24 | COc1ccc(CNC(C)c2cccc(C#N)c2)cc1C (centres unmarked) [Compound 24E] | 35% | 71% | 94% |  | 
25 | COc1ccc(CNC(C)c2ccc(C)c(C)c2)cc1C (centres unmarked) [Compound 24G] | 75% | 94% | 109% |  | 
26 | COc1ccc(CNC(C)c2ccc(F)c(F)c2)cc1C (centres unmarked) [Compound 24I] | 55% | 84% | 109% |  | 

Row | SMILES | % activity (33 ng/mL) | % activity (330 ng/mL) | % activity (3300 ng/mL) | activity at […] (33 ng/mL) | activity at […] (330 ng/mL)
27 | C[C@@H](NCCCc1cccc(OC(F)(F)F)c1)c1cccc2ccccc12 [Compound 24J] | 75% | 103% |  |  | 
28 | COc1cccc([C@@H](C)NCCCc2cc(F)ccc2F)c1 [Compound 24K] | 78% | 106% |  |  | 
29 | COc1cccc([C@@H](C)NCCCc2c(F)cccc2F)c1 [Compound 24L] | 62% | 105% |  |  | 
30 | COc1cccc([C@@H](C)NCCCc2cc(F)cc(F)c2)c1 [Compound 24M] | 99% | 134% | 132% |  | 
31 | CC(NCCCc1ccccc1Cl)c1cccc(Cl)c1 (centres unmarked) [Compound 24O] | 58% | 114% | 137% |  | 
32 | COc1cccc([C@@H](C)NC(C)CCc2cc(F)cc(F)c2)c1 (some centres unmarked) [Compound 24P] | 110% | 138% | 140% |  | 
33 | COC(=O)c1cccc(C(C)NCc2ccc(OC)c(C)c2)c1 (centres unmarked) [Compound 24U] | 78% | 106% | 106% |  | 
34 | CCOC(=O)COc1cccc(C(C)NCc2ccc(OC)c(C)c2)c1 (centres unmarked) [Compound 24V] | 71% | 98% | 127% |  | 
35 | COc1ccc(CN[C@H](C)c2cccc3ccccc23)cc1Br [Compound 24X] | 124% | 109% | 126% |  | 
36 | CCOc1ccc(CN[C@H](C)c2cccc3ccccc23)cc1Cl [Compound 24Y] | 127% | 120% | 119% |  | 
37 | COc1ccc(CNC(C)c2cccc(SC)c2)cc1C (centres unmarked) [Compound 24Z] | 135% | 138% | 138% |  | 
38 | CCOc1ccc(CN[C@H](C)c2cccc3ccccc23)cc1C [Compound 25A] | 114% | 120% | 122% |  | 
39 | COc1cccc([C@@H](C)NCC=Cc2ccccc2)c1 [Compound 25E, (R)-N-(3-phenylprop-2-enyl)-1-(3-methoxyphenyl)ethylamine] | 122% | 129% | 132% |  | 
40 | COc1cccc([C@@H](C)NCc2cccc3ccccc23)c1 [Compound 25F] |  |  |  | 76% | 85%
41 | COc1cccc([C@@H](C)NCC(C)=Cc2ccccc2)c1 [Compound 25G, (R)-N-(2-methyl-3-phenylprop-2-enyl)-1-(3-methoxyphenyl)ethylamine] | 99% | 115% | 130% |  | 
42 | COc1cccc([C@@H](C)NC[C@H](C)C=Cc2ccccc2)c1 [Compound 25H, (R,R)-N-(2-methyl-4-phenybut-3-enyl)-1-(3-methoxyphenyl)ethylamine] | 89% | 107% | 115% |  | 
43 | COc1cccc([C@H](C)NC[C@H](C)C=Cc2ccccc2)c1 [Compound 25I, (S,R)-N-(2-methyl-4-phenybut-3-enyl)-1-(3-methoxyphenyl)ethylamine] | 114% | 113% | 119% |  | 
44 | COc1cccc([C@@H](C)NCc2ccc3c(c2)OCO3)c1 [Compound 25J] | 105% | 123% | 119% |  | 
45 | COc1cccc([C@@H](C)NCc2ccc(OC)c(OC)c2)c1 [Compound 25K] | 86% | 107% | 124% |  | 
46 | C[C@@H](NCc1cccc2ccccc12)c1cccc2ccccc12 [Compound 25L] | 85% | 97% | 97% |  | 
47 | COc1cccc([C@@H](C)NCC(C)c2ccccc2)c1 (some centres unmarked) [Compound 25M] | 79% | 100% | 118% |  | 
48 | COc1cccc([C@@H](C)NCC(C)c2ccccc2)c1 (some centres unmarked) [Compound 25N] | 46% | 73% | 94% |  | 
49 | COc1cccc([C@@H](C)NCc2ccc3c(c2)OCCO3)c1 [Compound 25O] | 96% | 115% | 126% |  | 
50 | COc1cccc([C@@H](C)NC2Cc3ccccc3C2)c1 [Compound 25P] | 75% | 81% | 90% |  | 
51 | COc1cccc([C@@H](C)NCCc2ccccc2)c1 [Compound 25Q] | 77% | 95% | 116% |  | 
